From US11793824B2, “Administration of nicotinamide mononucleotide in the treatment of disease” (Washington University, priority 2013, dated 2023)
Entries after “also recorded” stand apart in the source; their conditions may differ.

Tested on: NSPCs
Assay: NSPC pool in the dentate gyrus after long-term NMN in drinking water
Assay type: in vivo, mouse
Description: All tissue sections were and cells incubated in blocking/permeabilization solution containing 10% normal goat serum, 1% BSA, and 0.3% Triton-X in PBS for 45 to 60 min prior to 24 or 48 h of incubation with primary antibodies in 5% normal goat serum and 0.1% Triton-X in PBS at 4° C. at the concentrations listed below. […], Alexa488, or Cy3 conjugated-secondary antibodies diluted in 2% normal goat serum, 1% BSA, and 0.1% Triton-X in PBS were added for 2 h at room temperature. Nuclei were stained with 4,6-diamidino-2-phenylindole (Sigma) for 10 min at room temperature.
Cells were harvested by fixation with 4% paraformaldehyde in PBS (15 min). Mice were anesthetized by i.p. injection of ketamine and xylazine, and perfused transcardially through left ventricle with cold 0.1 M phosphate buffer at pH 7.4 followed by a phosphate-buffered solution of 4% paraformaldehyde (PFA). Brains were postfixed with 4% PFA overnight and placed into 15% sucrose followed by 30% sucrose, frozen, and stored at −80° C. until use. Coronal sections (30 μm) were made by cryostat in a 1 in 8 series and stored at −30° C. in cryoprotectant until use. To remove any endogenous peroxidase activity, all sections were incubated with 3% H2O2 for 10 min. […]
For tissue sections, high-magnification (20×, 0.8DICII or 40× oil 1.3DICII) microscopic imaging was performed using a Zeiss Axioimage.Z1. […] Quantification was performed blinded to genotype on 3-8 tissue sections per animal. Cell densities were estimated by the number of immunoreactive cells divided by the area of the structure, measured with ImageJ. […] Quantification was performed blinded to genotype on 2 to 3 fields of view per sample and treatment, from 3 to 9 independent samples.
The inventors hypothesized that systemic administration of NMN may be able to correct age-associated defects in NSPC functionality. […] Quantification of Ki67+ (H) and Dcx+ (I) cells in the DG per unit area of the DG (n=5). […]

[1] = NMN in drinking water from 6 to 18 months of age

NC(=O)c1ccc[n+]([C@@H]2O[C@H](COP(=O)([O-])O)[C@@H](O)[C@H]2O)c1 [NMN, nicotinamide mononucleotide]
Type 1 (radial Nestin+) NSPC population with age (300 mg/kg body weight in drinking water from 6 to 18 months of age): improved maintenance; also recorded: able to maintain the NSPC pool
population of newborn neurons (Dcx+) in the DG [1]: trended to increase
population of proliferating cells (Ki67+) in the DG [1]: remained similar to controls
